From patent US20100316529A1, “Anti-Microbial Systems and Methods” (priority 2001, published 2010)
Values joined by “and” are separate entries in the source; they are usually repeats but may differ in a detail not shown here. Identical values can stand only once.

What was measured:
Test in all cases: EDTA salt dilution test, MIC/MBC
Type in all cases: cell-based
[1] = test system: Ent. faeculm
[2] = test system: Ent. cloacae; details: three entries
[3] = test system: Kleb. oxytoca
[4] = test system: Steno. maltophilia
[5] = test system: Kleb. ornitholytica
[6] = test system: Acinetobacter baumanii; details: two entries, Exhibit A1
[7] = test system: S. aureus; details: five entries
Description: (§1) Protocol one: Broth dilutions:
(§2) Inoculate a 25 ml nutrient broth (Oxoid No2) in a sterile universal container with one of the following organisms; Pseudomonas aeruginosa, Proteus Mirabilis, E. coli, Klebsiella pneumoniae, Staph aureus, Coagulase negative staphylococci, Enterococcus faecalis or MRSA.
(§3) Incubate the broth at 37° C. overnight.
(§4) To make these concentrations put the EDTA needed for 10 mLs in only 9 mLs of broth in sterile universal containers, as this will be diluted further when the organisms are added.
(§5) Dilute the overnight broth cultures to 10^7 organisms/mL using more sterile nutrient broth.
(§6) Add 1 mL of this diluent to each of the EDTA series broths. This gives a final concentration of 10^6 organism/mL in the EDTA broths.
(§7) Incubate for 18 hours at 37° C.
(§8) Next day visually read the MIC's by observing the turbidity of the broths.
(§9) Plate out 1 uL of each dilution onto fresh blood agar plate and spread using a sterile plastic spreader.
(§10) Incubate overnight at 37° C.
(§11) Next day read the MBC's by performing colony counts.

[8] = test system: S. capitis; details: two entries
Description: as §1, §2, §3, §4, §5, §6, §7, §8, §9, §10, §11

[9] = test system: S. epidermidis; details: two entries
Description: as §1, §2, §3, §4, §5, §6, §7, §8, §9, §10, §11

[10] = test system: Pseudomonas aeruginosa; details: two entries
Description: as §1, §2, §3, §4, §5, §6, §7, §8, §9, §10, §11

[11] = test system: Ent. faecalis
Description: as §1, §2, §3, §4, §5, §6, §7, §8, §9, §10, §11

[12] = test system: Proteus mirabilis; details: two entries
Description: as §1, §2, §3, §4, §5, §6, §7, §8, §9, §10, §11

[13] = test system: VRE; details: two entries, Exhibit A1
Description: as §1, §2, §3, §4, §5, §6, §7, §8, §9, §10, §11

[14] = test system: MRSA; details: five entries
Description: as §1, §2, §3, §4, §5, §6, §7, §8, §9, §10, §11

[15] = test system: Pseudomonas sp.
Description: as §1, §2, §3, §4, §5, §6, §7, §8, §9, §10, §11

[16] = test system: Kleb. pnemoniae; details: two entries
Description: as §1, §2, §3, §4, §5, §6, §7, §8, §9, §10, §11

[17] = test system: S. xylosus
Description: as §1, §2, §3, §4, §5, §6, §7, §8, §9, §10, §11

[18] = test system: E. coli; details: three entries
Description: as §1, §2, §3, §4, §5, §6, §7, §8, §9, §10, §11

[19] = test system: S. lentus
Description: as §1, §2, §3, §4, §5, §6, §7, §8, §9, §10, §11

[20] = test system: S. simulans
Description: as §1, §2, §3, §4, §5, §6, §7, §8, §9, §10, §11

[21] = test system: Coryneform strait/amy
[22] = test system: Proteus vulgaris
[23] = test system: Cornyeform amycolatum

O=C([O-])CN(CCN(CC(=O)[O-])CC(=O)[O-])CC(=O)[O-].[Fe+3].[Na+] [Ferric-sodium salt EDTA]
MIC, minimum concentration required to inhibit growth ([1]; Ent. faecuim, Exhibit A2): 4 mg/mL
MBC, minimum concentration required to kill an entire population ([1]; Ent. faeculm, Exhibit A1): >30 mg/mL
MBC, minimum concentration required to kill an entire population ([2]; Exhibit A1): >15 mg/mL
MIC, minimum concentration required to inhibit growth ([2]; Exhibit A2): >15 mg/mL
MBC, minimum concentration required to kill an entire population ([3]; Exhibit A1): >15 mg/mL
MIC, minimum concentration required to inhibit growth ([3]; Exhibit A2): >15 mg/mL
MBC, minimum concentration required to kill an entire population ([4]; Exhibit A1): >15 mg/mL
MIC, minimum concentration required to inhibit growth ([4]; Exhibit A2): 10 mg/mL
MBC, minimum concentration required to kill an entire population ([5]; Exhibit A1): >15 mg/mL
MIC, minimum concentration required to inhibit growth ([5]; Exhibit A2): 15 mg/mL
MBC, minimum concentration required to kill an entire population [6]: 10 mg/mL and >15 mg/mL
MBC, minimum concentration required to kill an entire population ([7]; Exhibit A1): >30 mg/mL
MIC, minimum concentration required to inhibit growth ([7]; Exhibit A2): >20 mg/mL
MBC, minimum concentration required to kill an entire population ([8]; Exhibit A1): >30 mg/mL
MIC, minimum concentration required to inhibit growth ([8]; Exhibit A2): >20 mg/mL
MBC, minimum concentration required to kill an entire population ([9]; Exhibit A1): >30 mg/mL
MIC, minimum concentration required to inhibit growth ([9]; Exhibit A2): >20 mg/mL
MBC, minimum concentration required to kill an entire population ([10]; Exhibit A1): >15 mg/mL
MIC, minimum concentration required to inhibit growth ([10]; Exhibit A2): 15 mg/mL
MBC, minimum concentration required to kill an entire population ([11]; Exhibit A1): >30 mg/mL
MIC, minimum concentration required to inhibit growth ([11]; Exhibit A2): 4 mg/mL
MBC, minimum concentration required to kill an entire population ([12]; Exhibit A1): >15 mg/mL
MIC, minimum concentration required to inhibit growth ([12]; Exhibit A2): >15 mg/mL
MBC, minimum concentration required to kill an entire population [13]: >30 mg/mL
MBC, minimum concentration required to kill an entire population ([14]; Exhibit A1): >30 mg/mL
MIC, minimum concentration required to inhibit growth ([14]; Exhibit A2): >20 mg/mL
MBC, minimum concentration required to kill an entire population ([15]; Exhibit A1): >15 mg/mL
MIC, minimum concentration required to inhibit growth ([15]; Exhibit A2): 15 mg/mL
MBC, minimum concentration required to kill an entire population ([16]; Exhibit A1): >15 mg/mL
MIC, minimum concentration required to inhibit growth ([16]; Exhibit A2): >15 mg/mL and 15 mg/mL
MBC, minimum concentration required to kill an entire population ([17]; Exhibit A1): >30 mg/mL
MIC, minimum concentration required to inhibit growth ([17]; Exhibit A2): >20 mg/mL
MBC, minimum concentration required to kill an entire population ([18]; Exhibit A1): >15 mg/mL
MIC, minimum concentration required to inhibit growth ([18]; Exhibit A2): 15 mg/mL and >15 mg/mL
MBC, minimum concentration required to kill an entire population ([19]; Exhibit A1): >30 mg/mL
MIC, minimum concentration required to inhibit growth ([19]; Exhibit A2): >20 mg/mL
MBC, minimum concentration required to kill an entire population ([20]; Exhibit A1): >30 mg/mL
MIC, minimum concentration required to inhibit growth ([20]; Exhibit A2): >20 mg/mL
MBC, minimum concentration required to kill an entire population ([21]; Exhibit A1): 10 mg/mL
MIC, minimum concentration required to inhibit growth ([21]; Exhibit A2): 10 mg/mL
MBC, minimum concentration required to kill an entire population ([22]; Exhibit A1): >15 mg/mL
MIC, minimum concentration required to inhibit growth ([22]; Exhibit A2): >15 mg/mL
MBC, minimum concentration required to kill an entire population ([23]; Exhibit A1): 10 mg/mL
MIC, minimum concentration required to inhibit growth ([23]; Exhibit A2): 10 mg/mL
